We go through 9 compounds from patent publication US11155544B2, “Heterocycle comprising tyrosine kinase inhibitors” (Principia Biopharma Inc., priority 2015, dated 2021).

For one experiment, the target named is human recombinant BTK (Homo sapiens (Human), UniProt Q06187). Description: BTK Enzymatic Activity Assay (Caliper-based kinase assay). The note with it: human recombinant BTK (0.5 nM), ATP (16 μM), peptide substrate (1 μM), room temperature for 3 h. It is filed as biochemical. The protocol:
A Caliper-based kinase assay (Caliper Life Sciences, Hopkinton, Mass.) was used to measure inhibition of BTK kinase activity of a compound of the present disclosure. Serial dilutions of test compounds were incubated with human recombinant BTK (0.5 nM), ATP (16 μM) and a phosphoacceptor peptide substrate FAM-GEEPLYWSFPAKKK-NH2 (1 μM) at room temperature for 3 h. The reaction was then terminated with EDTA, final concentration 20 mM and the phosphorylated reaction product was quantified on a Caliper Desktop Profiler (Caliper LabChip 3000). Percent inhibition was calculated for each compound dilution and the concentration that produced 50% inhibition was calculated. This value is presented as the IC50.

The subject of a further experiment is CD69 expression. Description: Blockade of CD69 Expression in Human Whole Blood Samples. It is filed as cell-based. The note with it: 30 minutes pre-incubation, activation with anti-IgM, cells gated on CD20, CD69 by FACS. The protocol: Activation of the B cell receptor leads to increased BTK activity, calcium mobilization and B cell activation (see Honigberg L. A., et. al., Proc Natl Acad Sci USA. 107:13075-80. 2010). […] CD69 was expressed following B cell activation as a measure of BTK activity in whole blood. Aliquots of whole blood were pre-incubated with serial dilutions of test compound for 30 minutes followed by activation with anti-IgM (goat Fab′ 2, 50 μg/ml). Samples were incubated overnight at 37° C. and then stained with PE labeled anti-CD20 and APC labeled anti-CD69 (BD Pharmingen) for 30 minutes according to the manufacturer's directions. Whole blood was then lysed and cells gated on CD20 expression were quantified for CD 69 expression by FACS. The percent inhibition was calculated based on a DMSO control for no inhibition and plotted as a function of test compound concentration from which an IC50 value was calculated.
(In general: Flow cytometry measures light scatter and fluorescence of single cells or particles in a stream.)

The term IC50 denotes the concentration needed to halve the response being measured.

Chain of human recombinant BTK (Q06187 whole entry): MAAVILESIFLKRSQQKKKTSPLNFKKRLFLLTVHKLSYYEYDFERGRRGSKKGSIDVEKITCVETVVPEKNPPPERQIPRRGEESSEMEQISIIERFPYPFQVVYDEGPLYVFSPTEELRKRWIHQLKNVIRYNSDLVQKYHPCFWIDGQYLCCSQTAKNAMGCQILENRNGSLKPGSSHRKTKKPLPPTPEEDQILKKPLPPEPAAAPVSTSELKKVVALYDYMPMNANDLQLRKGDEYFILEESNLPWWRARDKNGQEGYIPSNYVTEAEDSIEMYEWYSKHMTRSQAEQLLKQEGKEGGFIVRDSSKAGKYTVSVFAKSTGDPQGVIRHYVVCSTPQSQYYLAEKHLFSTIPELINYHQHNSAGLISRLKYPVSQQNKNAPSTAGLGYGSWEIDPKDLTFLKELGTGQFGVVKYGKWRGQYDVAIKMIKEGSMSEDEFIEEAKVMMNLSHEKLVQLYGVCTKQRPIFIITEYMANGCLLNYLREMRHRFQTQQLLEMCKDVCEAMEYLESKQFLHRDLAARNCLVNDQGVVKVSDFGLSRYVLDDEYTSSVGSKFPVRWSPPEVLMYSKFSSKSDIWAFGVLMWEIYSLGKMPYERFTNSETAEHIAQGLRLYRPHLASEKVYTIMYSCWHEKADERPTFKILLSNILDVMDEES

Take `CC(C)(C)C=C(C#N)C(=O)N1CCC[C@@H](n2nc(-c3ccc(Oc4ccccc4)cc3F)c3c(N)nccc32)C1` [Compound 9, (R)-2-(3-(4-amino-3-(2-fluoro-4-phenoxyphenyl)-1H-pyrazolo[4,3-c]pyridin-1-yl)piperidine-1-carbonyl)-4,4-dimethylpent-2-enenitrile]: the IC50 was 8.6 nM at human recombinant BTK and 526 nM with CD69 expression.

For the compound `CN(C1COC1)C(C)(C)C=C(C#N)C(=O)N1CCC[C@H]1Cc1nc(-c2ccc(Oc3ccccc3)cc2F)c2c(N)nccn12` [Compound 18, (S)-2-(2-((8-amino-1-(2-fluoro-4-phenoxyphenyl)imidazo[1,5-a]pyrazin-3-yl)methyl)pyrrolidine-1-carbonyl)-4-methyl-4-(methyl(oxetan-3-yl)amino)pent-2-enenitrile], the IC50 on human recombinant BTK worked out at 4.3 nM; with CD69 expression, 130 nM.

For `CC(C)(C=C(C#N)C(=O)N1CCC[C@@H](n2nc(-c3ccc(Oc4ccccc4)c(F)c3)c3c(N)nccc32)C1)N1CCN(C2COC2)CC1` [Compound 26, (R)-2-(3-(4-amino-3-(3-fluoro-4-phenoxyphenyl)-1H-pyrazolo[4,3-c]pyridin-1-yl)piperidine-1-carbonyl)-4-methyl-4-(4-(oxetan-3-yl)piperazin-1-yl)pent-2-enenitrile], the IC50 on human recombinant BTK stood at 3 nM; in the experiment on CD69 expression it was 367 nM.

In the case of `CC(C)(C=C(C#N)C(=O)N1CCC[C@@H](n2nc(-c3ccc(Oc4ccccc4)cc3F)c3c(N)nccc32)C1)C1CCN(C2COC2)CC1` [Compound 23, (R)-2-(3-(4-amino-3-(2-fluoro-4-phenoxyphenyl)-1H-pyrazolo[4,3-c]pyridin-1-yl)piperidine-1-carbonyl)-4-methyl-4-(1-(oxetan-3-yl)piperidin-4-yl)pent-2-enenitrile], the results for the IC50 at human recombinant BTK and in the experiment with CD69 expression were 1.6 nM and 538 nM, respectively.

In the case of `CC(C)(C=C(C#N)C(=O)N1CCC[C@H]1Cn1nc(-c2ccc(Oc3ccccc3)cc2F)c2c(N)nccc21)N1CCN(C2COC2)CC1` [Compound 13, (S)-2-(2-((4-amino-3-(2-fluoro-4-phenoxyphenyl)-1H-pyrazolo[4,3-c]pyridin-1-yl)methyl)pyrrolidine-1-carbonyl)-4-methyl-4-(4-(oxetan-3-yl)piperazin-1-yl)pent-2-enenitrile], the IC50 on human recombinant BTK stood at 7.4 nM; in the experiment with CD69 expression it was 1290 nM.

In the case of `CC(C)(C=C(C#N)C(=O)N1CCC[C@H]1Cc1nc(-c2ccc(Oc3ccccc3)cc2F)c2c(N)nccn12)N1CCN(C2COC2)CC1` [Compound 19, (S)-2-(2-((8-amino-1-(2-fluoro-4-phenoxyphenyl)imidazo[1,5-a]pyrazin-3-yl)methyl)pyrrolidine-1-carbonyl)-4-methyl-4-(4-(oxetan-3-yl)piperazin-1-yl)pent-2-enenitrile], the IC50 at human recombinant BTK came to 23.5 nM; in the experiment on CD69 expression, 178 nM.

On to “(R)-2-(3-(4-amino-3-(2-methyl-4-phenoxyphenyl)-1H-pyrazolo[4,3-c]pyridin-1-yl)piperidine-1-carbonyl)-4-methyl-4-(4-(oxetan-3-yl)piperazin-1-yl)pent-2-enenitrile [Compound 25]”, for which the IC50 on human recombinant BTK was found to be 4.4 nM; with CD69 expression, 430 nM.

In the case of `CC(C)(/C=C(\C#N)C(=O)N1CCC[C@H]1Cc1nc(-c2ccc(Oc3ccccc3)cc2F)c2c(N)nccn12)N1CCOCC1` [Compound 17, (S)-2-(2-((8-amino-1-(2-fluoro-4-phenoxyphenyl)imidazo[1,5-a]pyrazin-3-yl)methyl)pyrrolidine-1-carbonyl)-4-methyl-4-morpholinopent-2-enenitrile], the values for the IC50 at human recombinant BTK and in the experiment on CD69 expression were 2.9 nM and 165 nM, respectively.

As to `CC(C)(/C=C(\C#N)C(=O)N1CCC[C@@H](n2nc(-c3ccc(Oc4ccccc4)cc3F)c3c(N)nccc32)C1)N1CCOCC1` [Compound 11, (R)-2-(3-(4-amino-3-(2-fluoro-4-phenoxyphenyl)-1H-pyrazolo[4,3-c]pyridin-1-yl)piperidine-1-carbonyl)-4-methyl-4-morpholinopent-2-enenitrile], the IC50 was 2 nM on human recombinant BTK and 200 nM in the experiment with CD69 expression.
